The values that follow are results of earlier work, collected in US6479236B2, “Genotyping the human UDP-glucuronosyltransferase 1 (UGT1) gene” (DNA Sciences Laboratories, Inc., priority 1998, dated 2002).

The structures appear in SMILES notation.

In one data set the target is T1, UGT1*1 (Homo sapiens, UniProt P22309).
T1 sequence (P22309 26-533): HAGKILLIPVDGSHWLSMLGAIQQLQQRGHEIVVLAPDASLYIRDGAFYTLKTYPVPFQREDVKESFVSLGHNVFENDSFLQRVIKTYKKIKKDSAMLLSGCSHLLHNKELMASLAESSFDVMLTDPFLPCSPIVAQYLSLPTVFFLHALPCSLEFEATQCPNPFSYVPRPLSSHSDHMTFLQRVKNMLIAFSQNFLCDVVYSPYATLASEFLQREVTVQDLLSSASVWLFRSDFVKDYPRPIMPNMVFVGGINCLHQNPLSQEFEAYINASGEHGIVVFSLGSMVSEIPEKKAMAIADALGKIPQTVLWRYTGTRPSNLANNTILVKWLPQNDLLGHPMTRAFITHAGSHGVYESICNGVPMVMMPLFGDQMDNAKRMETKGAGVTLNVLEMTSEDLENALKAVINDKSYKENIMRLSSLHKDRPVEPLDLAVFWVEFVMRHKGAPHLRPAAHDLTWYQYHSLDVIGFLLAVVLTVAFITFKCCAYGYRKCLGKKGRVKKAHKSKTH
The conditions noted are these: for Km: substrate of UGT1*1; for binding to UGT1*1 compared with bilirubin: relative to the endogenous substrate bilirubin.

Another data set deals with T2, UGT1*7 (Homo sapiens, UniProt O60656).
T2 sequence (O60656 26-530): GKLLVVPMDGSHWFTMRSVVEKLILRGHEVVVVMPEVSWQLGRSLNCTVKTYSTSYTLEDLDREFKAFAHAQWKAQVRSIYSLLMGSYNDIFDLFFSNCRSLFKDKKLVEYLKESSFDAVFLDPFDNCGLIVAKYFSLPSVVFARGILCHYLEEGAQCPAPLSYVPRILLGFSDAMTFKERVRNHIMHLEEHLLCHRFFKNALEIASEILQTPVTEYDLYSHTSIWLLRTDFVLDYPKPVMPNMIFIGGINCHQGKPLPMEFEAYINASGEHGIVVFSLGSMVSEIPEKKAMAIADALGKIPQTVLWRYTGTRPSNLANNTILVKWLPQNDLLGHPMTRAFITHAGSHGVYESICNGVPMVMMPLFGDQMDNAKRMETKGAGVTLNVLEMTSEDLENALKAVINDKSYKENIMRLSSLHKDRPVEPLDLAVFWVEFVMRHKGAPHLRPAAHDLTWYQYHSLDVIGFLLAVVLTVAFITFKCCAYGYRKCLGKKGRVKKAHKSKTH
The conditions noted are these: substrate of UGT1*7.

For a further data set, the target named is UGT1*6 (Homo sapiens, UniProt P19224). Conditions: substrate of UGT1*6.

Turning to `C=CC1=C(C)/C(=C/c2[nH]c(Cc3[nH]c(/C=C4\NC(=O)C(C)=C4C=C)c(C)c3CCC(=O)O)c(CCC(=O)O)c2C)NC1=O` [Bilirubin], the Michaelis-Menten constant (Km) at UGT1*1 was 24 µM.

On to `Cc1cc(O)c2c(c1)C(=O)c1cc(O)cc(O)c1C2=O` [emodin], for which, on UGT1*1, the “binding to UGT1*1 compared with bilirubin” value is on record as “more readily binds”.

For `CCCCCCCCOC(=O)c1cc(O)c(O)c(O)c1` [Octyl gallate], on UGT1*1, the “binding to UGT1*1 compared with bilirubin” value is “more readily binds” and the Km was 162 µM. At UGT1*7, the Michaelis constant (Km) was 158 µM.

Take `CC(C)c1cccc(C(C)C)c1O` [Propofol]: the Km at UGT1*7 is 172 µM.

As to `CC(=O)Nc1ccc(O)cc1` [Acetaminophen], the Km is 2000 µM on UGT1*6 and 50000 µM at UGT1*7.

Turning to `O=C(O)[C@H]1O[C@H](OP(=O)(O)OP(=O)(O)OC[C@H]2O[C@@H](n3ccc(=O)[nH]c3=O)[C@H](O)[C@@H]2O)[C@H](O)[C@@H](O)[C@@H]1O` [UDPGA], the Km at UGT1*1 and on UGT1*7 was 410 µM throughout.

By Km is commonly meant the substrate concentration at which the rate is half of its maximum.
